Results on two molecules are retold here after paper PMC7587396, “New Zileuton-Hydroxycinnamic Acid Hybrids: Synthesis and Structure-Activity Relationship towards 5-Lipoxygenase Inhibition” (Molecules, 2020).

Data set [1] deals with T1, 5-LO (Homo sapiens, UniProt P09917).
T1 sequence (P09917 1-674): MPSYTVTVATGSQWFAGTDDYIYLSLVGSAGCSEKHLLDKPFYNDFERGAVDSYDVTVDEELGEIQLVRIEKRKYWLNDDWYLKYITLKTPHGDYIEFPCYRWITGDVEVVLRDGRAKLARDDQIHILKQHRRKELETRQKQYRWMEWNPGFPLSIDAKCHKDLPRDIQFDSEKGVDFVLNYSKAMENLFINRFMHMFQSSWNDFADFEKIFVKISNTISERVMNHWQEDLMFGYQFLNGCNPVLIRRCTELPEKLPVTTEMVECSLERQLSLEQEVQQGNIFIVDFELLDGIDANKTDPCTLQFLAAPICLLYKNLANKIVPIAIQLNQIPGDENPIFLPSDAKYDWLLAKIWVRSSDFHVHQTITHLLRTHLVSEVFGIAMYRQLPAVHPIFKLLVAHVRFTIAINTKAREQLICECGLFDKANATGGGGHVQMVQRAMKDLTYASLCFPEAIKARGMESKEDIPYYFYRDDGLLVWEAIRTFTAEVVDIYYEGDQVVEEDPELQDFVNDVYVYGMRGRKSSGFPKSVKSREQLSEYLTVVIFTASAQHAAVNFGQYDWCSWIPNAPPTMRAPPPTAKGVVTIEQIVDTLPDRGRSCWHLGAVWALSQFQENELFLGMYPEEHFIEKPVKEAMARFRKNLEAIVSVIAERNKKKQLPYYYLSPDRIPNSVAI
Further details: 5-LO is highly expressed in PMNL; endogenous in cells; host or cells: human PMNL from peripheral blood of healthy volunteers. The following applies: read-out: IC50, inhibition of LTs biosynthesis in human PMNL; cited from earlier work.

Data set [2] is described as follows: Free radical scavenging activity assay (DPPH). The conditions noted are these: DPPH stable radical, 30 min, absorbance 517 nm; read-out: Free radical scavenging activity IC50 (µM) [SEM]. As to the method:
A mechanism by which 5-LO activity can be inhibited is through reductive inhibition of the ferric non-heme iron of the enzyme. Interactions with stable free radicals provides an evaluation of the reducing ability of the test compounds. Radical scavenging activities of compounds tested in stimulated PMNL were assayed using 2,2-Diphenyl-1-picrylhydrazyl (DPPH) as a stable radical and are expressed as IC50 concentrations in Table 1.
The free radical scavenging activity of test compounds was measured as previously described using 2,2-diphenyl-1-picrylhydrazyl (DPPH) as a stable radical with slight modifications. DPPH (200 µL) in ethanol (250 µM) was mixed with 200 µL of the test compounds (1, 5, 10, 25, 50, 75, and 100 µg/mL). Each mixture was then shaken vigorously and held in the dark for 30 min at room temperature. The absorbance of DPPH at 517 nm was then measured. The radical scavenging activity was expressed in terms of % inhibition of DPPH absorbance:% Inhibition = (A control − A test)/A control) × 100 where A control is the absorbance of the control (DPPH solution without test compounds) and A test is the absorbance of the test sample (DPPH solution plus compounds). Ascorbic acid was used as a positive control. Data were expressed as mean ± SEM of three independent experiments, each performed in triplicate. IC50 values were calculated from a sigmoidal concentration-response curve-fitting model with a variable slope on GraphPad Prism software.

Data set [3] deals with T1, 5-LO. The experiment in a line: 5-LO products biosynthesis assay in human PMNL cells. Type of data set: cell-based. Further details: 5-LO is highly expressed in PMNL; endogenous in cells; host or cells: human PMNL from peripheral blood of healthy volunteers. The following applies: compounds at 1 µM; result in words, compared with zileuton (1), SAPE (2) or controls; thapsigargin stimulation. An excerpt:
To further probe the inhibitory activity of compounds that approached the inhibitory activity of zileuton (1) and SAPE (2), compounds were selected for further screening in PMNL (Figure 6). 5-LO is highly expressed in PMNL and these cells are important physiological producers of LTB4 [17]. […] The presence of the hydroxyl group in position 4 and the methoxy groups in positions 3 and 5 seems to be an ideal combination for inhibition of 5-LO (Figure 6). These structural changes may influence the availability, cell permeation, or even the stability of inhibitors in PMNL versus HEK293 cells. […] Human PMNL were prepared from peripheral blood of healthy consenting volunteers as described. Human PMNL are an important source of 5-LO metabolites and are relevant primary inflammatory cells for the evaluation of the best compounds identified during the screening process. PMNL were suspended in HBSS containing 1.6 mM CaCl2 (10^7 cells/mL) and pre-incubated with compounds dissolved in DMSO for 5 min at 37 °C in the presence of 0.4 U/mL of adenosine deaminase (Sigma-Aldrich, Oakville, On, Canada). Cells were then stimulated for 15 min at 37 °C with 1 μM thapsigargin (Sigma-Aldrich). Reactions were stopped by the addition of 0.5 mL of cold MeOH:CH3CN (1:1) and 50 ng of PGB2 as internal standard and samples were stored at -20 °C until processing for RP-HPLC analysis as indicated above.

The target in data set [4] is T1, 5-LO. The experiment in a line: 5-LO product biosynthesis assay in stimulated HEK293 cells co-transfected with 5-LO and FLAP. It is filed as cell-based. The following applies: compounds at 1 µM; result in words, compared with zileuton (1) and SAPE (2) at 1 µM; A23187 + arachidonic acid stimulation. Details: expressed in transfected cells; host or cells: HEK293 cells, stably co-transfected (pcDNA3.1 5-LO, pBUDCE4.1 FLAP). As to the method:
All compounds, including known inhibitors zileuton (1) and SAPE (2), were assayed at 1 µM (Figure 1) for inhibition of LTs biosynthesis in stimulated HEK293 cells. These cells are stably transfected with human 5-LO and serves as a highly reproducible model of 5-LO product biosynthesis in which compounds can be preliminarily screened for anti-LTs activity before moving on to more complex systems. […] Esterification of benzo[b]thiophene-2-carboxylic acid to obtain benzyl to phenbutyl analogs (4–7) had no effect on the inhibitory activity of 5-LO. […] Even the addition of a hydroxyl (8) or methoxy (9) at para-position of the phenethyl group has no effect on the activity.
HEK293 cells were stably co-transfected with a pcDNA3.1 vector expressing 5-LO and a pBUDCE4.1 vector expressing 5-LO activating protein (FLAP) as previously reported. This represents a controlled model for the evaluation of 5-LO inhibition in a cellular system. For cell stimulation of 5-LO products, transfected HEK293 cells were collected following trypsinization, washed and the cell pellet was resuspended in Hank’s balanced salt solution (HBSS) (Lonza, Walkerville, MD) containing 1.6 mM CaCl2 at a concentration of 5 × 10^5 cells/mL. Cells were pre-incubated with each compound dissolved in DMSO at the indicated concentration for 5 min at 37 °C. Cells were then stimulated for 15 min at 37 °C with the addition of 10 µM calcium ionophore A23187 (Sigma-Aldrich, Oakville, ON, Canada) and 10 µM arachidonic acid (Cayman Chemical, Ann Arbor, MI). Stimulation was stopped and processed for RP-HPLC analysis as described previously.

As for `O=C(/C=C/c1ccc(O)c(O)c1)OCCc1ccccc1` [CAPE, caffeic acid phenethyl ester], the IC50 in data set [1] was 0.52 µM.

For the molecule `O=C(/C=C/c1ccccc1O)c1cc2ccccc2s1` [Compound 14, (E)-1-(1-Benzothiophen-2-yl)-3-(o-hydroxyphenyl)-2-propen-1-one], the melting point is 178 to 180 °C. Also, the IC50 in data set [2] is 31.8 µM. The “Inhibition of the biosynthesis of 5-LO products in human PMNL cells” value in data set [3] is “neither compound showed significant inhibition compared to controls”. The “Inhibition of the biosynthesis of 5-LO products in stimulated HEK293 cells” value in data set [4] is reported as “non-significantly different than Zileuton (1)”.
